Test results taken from patent publication US20100112055A1, “MICROPOROUS FILM AND PREPARATION AND USE THEREOF” (NATIONAL TAIWAN UNIVERSITY, priority 2008, published 2010).

Experiment: Pharmacokinetic study in vivo, plasma theophylline by HPLC
Conditions: male, rabbit, rabbits, intravenous injection, n = 5
Experimental: The male rabbits were used as an animal model in this invention. Each rabbit was intravenous injection of theophylline solution, orally administered an uncoated theophylline core tablet (TH-Lac) and a coated micropore-controlled release tablet (TH-Lac-A50), respectively. Blood samples were collected at specific time points, and the plasma concentrations of theophylline were analyzed by high-performance liquid chromatography equipped with a reverse-phase column (Hypersil BDS C18, 250×4.6 mm, 5 μm) and a UV spectrophotometer at a wavelength of 272 nm (Shimadzu SPD-6AV). The mobile phase constituted by acetonitrile and 0.2 M acetate buffer solution (pH 4.5) in the ratio of 6.5:93.5% v/v was applied at a flow rate of 1.0 mL/min.

Compound: Cn1c(=O)c2[nH]cnc2n(C)c1=O [IV-TH, theophylline]
- AUC(0-inf): 117 ± 25.9 µg·h/mL
- Cmax: 21200 ± 1990 ng/mL
- MRT: 7.7 ± 1.16 h
- Tmax: 0.25 h
